Experiment: xn = mol fraction of the nth substance listed
Settings: 101 kPa, Liquid

OCCOCCO [diethylene glycol] + O
Settings | mass density [kg/m3] | viscosity [mPa·s]
323.15 K, x1 = 0.0255 | 1005.37 | 0.754
323.15 K, x1 = 0.0565 | 1022.33 | 1.031
323.15 K, x1 = 0.1027 | 1041.36 | 1.545
323.15 K, x1 = 0.1966 | 1064.65 | 2.783
323.15 K, x1 = 0.301 | 1077.97 | 4.231
323.15 K, x1 = 0.3989 | 1084.69 | 5.509
323.15 K, x1 = 0.5006 | 1088.85 | 6.694
323.15 K, x1 = 0.6011 | 1091.42 | 7.635
323.15 K, x1 = 0.7003 | 1093.07 | 8.477
323.15 K, x1 = 0.8051 | 1094.21 | 9.115
323.15 K, x1 = 0.892 | 1094.88 | 9.635
323.15 K, x1 = 1 | 1095.51 | 10.03
328.15 K, x1 = 0.0255 | 1002.86 | –
328.15 K, x1 = 0.0565 | 1019.53 | –
328.15 K, x1 = 0.1027 | 1038.21 | –
328.15 K, x1 = 0.1966 | 1061.13 | –
328.15 K, x1 = 0.301 | 1074.29 | –
328.15 K, x1 = 0.3989 | 1080.98 | –
328.15 K, x1 = 0.5006 | 1085.16 | –
328.15 K, x1 = 0.6011 | 1087.74 | –
328.15 K, x1 = 0.7003 | 1089.41 | –
328.15 K, x1 = 0.8051 | 1090.57 | –
328.15 K, x1 = 0.892 | 1091.26 | –
328.15 K, x1 = 1 | 1091.91 | –
333.15 K, x1 = 0.0255 | 1000.22 | 0.62
333.15 K, x1 = 0.0565 | 1016.62 | 0.849
333.15 K, x1 = 0.1027 | 1034.99 | 1.236
333.15 K, x1 = 0.1966 | 1057.55 | 2.147
333.15 K, x1 = 0.301 | 1070.58 | 3.202
333.15 K, x1 = 0.3989 | 1077.25 | 4.103
333.15 K, x1 = 0.5006 | 1081.43 | 4.917
333.15 K, x1 = 0.6011 | 1084.04 | 5.534
333.15 K, x1 = 0.7003 | 1085.74 | 6.12
333.15 K, x1 = 0.8051 | 1086.93 | 6.492
333.15 K, x1 = 0.892 | 1087.63 | 6.874
333.15 K, x1 = 1 | 1088.3 | 7.22
338.15 K, x1 = 0.0255 | 997.46 | –
338.15 K, x1 = 0.0565 | 1013.61 | –
338.15 K, x1 = 0.1027 | 1031.68 | –
338.15 K, x1 = 0.1966 | 1053.92 | –
338.15 K, x1 = 0.301 | 1066.84 | –
338.15 K, x1 = 0.3989 | 1073.49 | –
338.15 K, x1 = 0.5006 | 1077.69 | –
338.15 K, x1 = 0.6011 | 1080.33 | –
338.15 K, x1 = 0.7003 | 1082.06 | –
338.15 K, x1 = 0.8051 | 1083.27 | –
338.15 K, x1 = 0.892 | 1083.99 | –
338.15 K, x1 = 1 | 1084.68 | –
343.15 K, x1 = 0.0255 | 994.57 | 0.527
343.15 K, x1 = 0.0565 | 1010.51 | 0.71
343.15 K, x1 = 0.1027 | 1028.29 | 1.011
343.15 K, x1 = 0.1966 | 1050.24 | 1.703
343.15 K, x1 = 0.301 | 1063.06 | 2.514
343.15 K, x1 = 0.3989 | 1069.69 | 3.15
343.15 K, x1 = 0.5006 | 1073.93 | 3.731
343.15 K, x1 = 0.6011 | 1076.59 | 4.217
343.15 K, x1 = 0.7003 | 1078.36 | 4.617
343.15 K, x1 = 0.8051 | 1079.6 | 4.863
343.15 K, x1 = 0.892 | 1080.34 | 5.121
343.15 K, x1 = 1 | 1081.05 | 5.369
348.15 K, x1 = 0.0255 | 991.57 | –
348.15 K, x1 = 0.0565 | 1007.27 | –
348.15 K, x1 = 0.1027 | 1024.84 | –
348.15 K, x1 = 0.1966 | 1046.51 | –
348.15 K, x1 = 0.301 | 1059.24 | –
348.15 K, x1 = 0.3989 | 1065.88 | –
348.15 K, x1 = 0.5006 | 1070.14 | –
348.15 K, x1 = 0.6011 | 1072.84 | –
348.15 K, x1 = 0.7003 | 1074.63 | –
348.15 K, x1 = 0.8051 | 1075.91 | –
348.15 K, x1 = 0.892 | 1076.67 | –
348.15 K, x1 = 1 | 1077.4 | –
353.15 K, x1 = 0.0255 | 988.5 | 0.465
353.15 K, x1 = 0.0565 | 1004.07 | 0.606
353.15 K, x1 = 0.1027 | 1021.3 | 0.848
353.15 K, x1 = 0.1966 | 1042.72 | 1.392
353.15 K, x1 = 0.301 | 1055.38 | 2.043
353.15 K, x1 = 0.3989 | 1062.02 | 2.502
353.15 K, x1 = 0.5006 | 1066.32 | 2.942
353.15 K, x1 = 0.6011 | 1069.05 | 3.283
353.15 K, x1 = 0.7003 | 1070.89 | 3.593
353.15 K, x1 = 0.8051 | 1072.2 | 3.818
353.15 K, x1 = 0.892 | 1072.99 | 4.024
353.15 K, x1 = 1 | 1073.74 | 4.139

— the NIST ThermoML archive (doi:10.1021/je700672f)
